Consider 30 compounds from patent EP4692090A1 (Shanghai Fosun Pharmaceutical (Group) Co., Ltd., priority 2023, dated 2024).

What is called IC50 is the concentration that gives 50% inhibition.

Molecules are shown by their SMILES. Where two headings read alike, the source gives them in different places.

One assay concerns the target T1, ATR kinase (Homo sapiens, UniProt Q13535).
T1 construct: purchased Eurofins 14-953
In words: Inhibitory effect on ATR kinase activity (Caliper mobility shift, FAM-labeled RAD17 peptide substrate). It is filed as biochemical. The note with it: 1 nM ATR kinase (Eurofins), 28°C for 3 hours, maximum concentration 1 µM, 10 concentrations. On the procedure:
Test Example 1: Inhibitory effect of the compounds of the present disclosure on ATR kinase activity
Test compounds to be tested were serially diluted with DMSO (maximum concentration 1 µM, 10 concentrations with 3-fold serial dilution) and added to the wells of a 384-well reaction plate (Corning, #4512). 1 nM ATR kinase (Eurofins, #14-953), 5 mM substrate (FAM-labeled RAD17 peptide, FAM-ASELPASQPQPFSAKKK), 5 mM ATP and the compounds with corresponding concentrations reacted in a kinase reaction solution (50 mM HEPES, pH 7.5; 0.0015% Brij-35; 10 mM MnCl2, total volume of 20 µL) at 28°C for 3 hours. The reaction was terminated by adding 30 µL of stop solution (100 mM HEPES, pH 7.5; 0.015% Brij-35; 0.2% Coating Reagent #3, PerkinElmer; 50 mM EDTA). The reaction plate was placed on a Caliper instrument (PerkinElmer) for testing. The relative inhibitory activity of each compound concentration group was calculated using the following formula: % Inhibition = (Conversion rate of the blank control group without compound added - Conversion rate of the test compound group) / (Conversion rate of the blank control group - […]). The IC50 values were calculated using GraphPad analysis and fitted. […] Table 1. Inhibitory effect (IC50) of compounds on ATR kinase activity.

The next assay concerns LoVo cells. The assay is described as follows: LoVo cell proliferation assay (CellTiter-Glo). It is filed as cell-based. The settings on record: maximum concentration 10 µM, 9 concentrations. On the procedure:
Test Example 2: LoVo cell proliferation assay
LoVo (ATCC, #CRL-229) cells in logarithmic growth phase were digested, counted, and plated into 96-well cell culture plates at 2,000 cells per well. The plates containing cells were incubated overnight at 37°C in a 5% CO2 incubator, and then test compounds with 3-fold gradient dilutions (maximum concentration: 10 µM, 9 concentrations) were added. DMSO was used as a blank control. After the LoVo cells containing the compounds or DMSO were incubated for an additional 5 days, an equal volume of CellTiter-Glo reagent (Promega, #7573) was added. After incubation at room temperature for 30 minutes, chemiluminescence was read using an Envision 2105 (PerkinElmer). The cell proliferation inhibition rate (%) for wells treated with each concentration of the compounds was calculated using the following formula. Then, with compound concentration as the horizontal axis and cell proliferation inhibition rate (%) as the vertical axis, GraphPad software was used to plot the data and determine the IC50 values of the test compounds. The results are shown in Table 2, wherein the IC50 ranges are defined as follows: A: ≤ 100 nM; 1000 nM ≥ B > 100 nM; C > 1000 nM.
Cell proliferation inhibition (%) = (1 - luminescence value of compound-treated group / average luminescence value of DMSO blank control group) × 100. Table 2. Inhibitory effect of compounds on LoVo growth
(In general: ATP-based viability assays read luminescence as a measure of living cells.)

[1] abbreviates: Homo sapiens, LoVo, 120 h, LoVo cells, 2,000 cells per well, 5 days incubation, CellTiter-Glo, read-out: LoVo IC50.
[2] abbreviates: LoVo cells, 2,000 cells per well, 5 days incubation, CellTiter-Glo, read-out: LoVo IC50.

T1 sequence (Q13535 whole entry): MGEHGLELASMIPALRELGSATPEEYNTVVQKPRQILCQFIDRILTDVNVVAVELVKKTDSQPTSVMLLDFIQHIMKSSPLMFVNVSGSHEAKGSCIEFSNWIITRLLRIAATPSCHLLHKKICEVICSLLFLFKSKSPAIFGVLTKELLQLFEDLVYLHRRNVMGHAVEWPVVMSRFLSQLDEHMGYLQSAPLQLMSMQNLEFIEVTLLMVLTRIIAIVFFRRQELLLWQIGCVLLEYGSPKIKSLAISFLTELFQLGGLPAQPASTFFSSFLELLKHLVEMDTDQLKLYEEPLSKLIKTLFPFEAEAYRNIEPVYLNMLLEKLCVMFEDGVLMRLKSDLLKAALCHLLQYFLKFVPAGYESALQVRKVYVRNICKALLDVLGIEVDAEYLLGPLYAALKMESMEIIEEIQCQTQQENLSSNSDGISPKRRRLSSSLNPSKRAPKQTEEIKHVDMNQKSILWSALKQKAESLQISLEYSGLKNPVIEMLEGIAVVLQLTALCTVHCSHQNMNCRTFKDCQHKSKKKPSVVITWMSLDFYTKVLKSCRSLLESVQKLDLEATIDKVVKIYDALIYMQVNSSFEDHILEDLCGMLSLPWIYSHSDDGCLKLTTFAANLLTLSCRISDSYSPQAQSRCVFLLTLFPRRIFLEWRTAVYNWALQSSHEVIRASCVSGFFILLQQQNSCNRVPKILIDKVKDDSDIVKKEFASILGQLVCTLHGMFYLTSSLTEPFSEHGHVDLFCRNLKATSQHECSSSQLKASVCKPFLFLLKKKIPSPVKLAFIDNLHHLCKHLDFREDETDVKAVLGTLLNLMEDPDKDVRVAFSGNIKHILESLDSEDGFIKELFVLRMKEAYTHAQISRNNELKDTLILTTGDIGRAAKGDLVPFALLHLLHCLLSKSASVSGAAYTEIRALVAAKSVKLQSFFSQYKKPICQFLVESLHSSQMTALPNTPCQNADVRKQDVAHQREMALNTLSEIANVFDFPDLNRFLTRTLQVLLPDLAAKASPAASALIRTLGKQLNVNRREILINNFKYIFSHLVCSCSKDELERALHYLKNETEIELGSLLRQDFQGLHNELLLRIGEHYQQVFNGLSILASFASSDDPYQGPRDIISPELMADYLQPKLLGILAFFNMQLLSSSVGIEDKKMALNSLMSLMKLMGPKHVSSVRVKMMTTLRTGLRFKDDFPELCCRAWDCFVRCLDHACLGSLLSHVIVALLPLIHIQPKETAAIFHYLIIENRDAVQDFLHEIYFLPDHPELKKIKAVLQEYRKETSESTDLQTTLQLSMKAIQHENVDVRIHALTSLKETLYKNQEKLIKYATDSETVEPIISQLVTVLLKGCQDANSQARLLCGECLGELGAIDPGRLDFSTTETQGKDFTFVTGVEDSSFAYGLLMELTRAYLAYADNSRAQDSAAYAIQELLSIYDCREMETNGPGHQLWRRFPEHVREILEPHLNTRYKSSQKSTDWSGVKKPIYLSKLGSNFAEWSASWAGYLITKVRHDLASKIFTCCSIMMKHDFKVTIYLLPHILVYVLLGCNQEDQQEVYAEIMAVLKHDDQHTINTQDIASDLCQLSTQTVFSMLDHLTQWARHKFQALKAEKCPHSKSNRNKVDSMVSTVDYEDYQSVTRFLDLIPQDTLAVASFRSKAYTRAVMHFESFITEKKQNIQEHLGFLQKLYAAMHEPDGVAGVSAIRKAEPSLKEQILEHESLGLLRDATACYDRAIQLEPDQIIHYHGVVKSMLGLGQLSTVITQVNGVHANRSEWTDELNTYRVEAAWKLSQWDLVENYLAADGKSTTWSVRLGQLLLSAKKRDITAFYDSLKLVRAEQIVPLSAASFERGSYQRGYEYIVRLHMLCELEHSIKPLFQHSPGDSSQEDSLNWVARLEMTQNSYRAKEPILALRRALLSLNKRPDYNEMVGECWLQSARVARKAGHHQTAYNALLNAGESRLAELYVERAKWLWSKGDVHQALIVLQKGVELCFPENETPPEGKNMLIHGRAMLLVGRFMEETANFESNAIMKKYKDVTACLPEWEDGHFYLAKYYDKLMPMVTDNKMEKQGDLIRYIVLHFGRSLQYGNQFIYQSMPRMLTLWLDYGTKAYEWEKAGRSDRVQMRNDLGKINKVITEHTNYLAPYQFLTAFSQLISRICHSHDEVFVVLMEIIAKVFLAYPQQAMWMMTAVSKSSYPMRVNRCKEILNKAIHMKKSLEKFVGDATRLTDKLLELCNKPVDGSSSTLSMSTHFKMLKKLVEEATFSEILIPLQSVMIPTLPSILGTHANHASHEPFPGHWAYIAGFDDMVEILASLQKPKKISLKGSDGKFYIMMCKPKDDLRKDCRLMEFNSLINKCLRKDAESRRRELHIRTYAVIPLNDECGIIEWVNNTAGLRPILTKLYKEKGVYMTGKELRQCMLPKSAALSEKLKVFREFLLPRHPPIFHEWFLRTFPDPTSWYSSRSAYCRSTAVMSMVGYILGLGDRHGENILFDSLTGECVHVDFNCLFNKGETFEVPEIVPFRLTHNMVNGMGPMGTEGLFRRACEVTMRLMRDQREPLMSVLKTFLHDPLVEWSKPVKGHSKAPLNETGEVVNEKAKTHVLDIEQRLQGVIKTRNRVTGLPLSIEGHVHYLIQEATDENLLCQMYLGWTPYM
T1 sequence (Q8WXE1 whole entry partner): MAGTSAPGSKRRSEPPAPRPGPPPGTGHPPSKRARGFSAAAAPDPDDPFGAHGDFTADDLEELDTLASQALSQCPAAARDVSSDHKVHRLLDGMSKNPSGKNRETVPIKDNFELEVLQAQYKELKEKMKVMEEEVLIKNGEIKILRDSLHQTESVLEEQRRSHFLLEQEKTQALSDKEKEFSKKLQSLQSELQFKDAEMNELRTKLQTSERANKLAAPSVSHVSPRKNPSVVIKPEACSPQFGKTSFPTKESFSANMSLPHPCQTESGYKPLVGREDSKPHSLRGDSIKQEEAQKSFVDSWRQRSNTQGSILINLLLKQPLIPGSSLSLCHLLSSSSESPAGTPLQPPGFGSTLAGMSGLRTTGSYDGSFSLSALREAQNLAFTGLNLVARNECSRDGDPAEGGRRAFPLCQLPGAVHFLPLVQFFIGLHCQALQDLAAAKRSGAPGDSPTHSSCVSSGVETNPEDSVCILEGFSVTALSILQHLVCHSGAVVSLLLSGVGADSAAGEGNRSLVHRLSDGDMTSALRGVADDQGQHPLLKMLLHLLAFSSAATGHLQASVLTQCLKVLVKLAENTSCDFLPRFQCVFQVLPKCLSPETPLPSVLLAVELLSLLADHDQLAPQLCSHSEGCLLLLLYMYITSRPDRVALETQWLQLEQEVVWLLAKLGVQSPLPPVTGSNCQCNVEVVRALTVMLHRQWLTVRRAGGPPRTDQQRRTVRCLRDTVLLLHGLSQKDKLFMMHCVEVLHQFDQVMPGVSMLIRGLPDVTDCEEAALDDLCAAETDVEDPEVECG

Regarding `CCS(=O)(=O)N1CCc2nn(-c3cc[nH]n3)c3nc(N4CCOC[C@H]4C)cc(c23)C1C` (single isomer, unassigned) [Compound 48A], the IC50 was 10 to 100 nM on ATR kinase (read-out: ATR kinase IC50) and 100 to 1000 nM in the assay with LoVo cells (setting [1]).
`CCS(=O)(=O)N1CCc2nn(-c3cc[nH]n3)c3nc(N4CCOC[C@H]4C)cc(c23)C1C` (single isomer, unassigned) [Compound 48B]: the figures for the IC50 at ATR kinase (read-out: ATR kinase IC50) and in the assay with LoVo cells (setting [2]) were less than 10 nM and less than 100 nM, respectively.
For `CC1c2cc(N3CCOC[C@H]3C)nc3c2c(nn3-c2cc[nH]n2)CCN1S(=O)(=O)C1(C)CC1` (single isomer, unassigned) [Compound 49A], the IC50 on ATR kinase (read-out: ATR kinase IC50) was less than 10 nM; in the assay with LoVo cells (setting [1]), less than 100 nM.
As to `CC1c2cc(N3CCOC[C@H]3C)nc3c2c(nn3-c2cc[nH]n2)CCN1S(=O)(=O)C1(C)CC1` (single isomer, unassigned) [Compound 49B], the IC50 was in the range of 10 to 100 nM on ATR kinase (read-out: ATR kinase IC50) and 100 to 1000 nM in the assay with LoVo cells (setting [2]).
As for `CC(C)C1(O)CCn2nc(-c3cc[nH]n3)c3nc(N4CCOC[C@H]4C)cc1c32` (single isomer, unassigned) [Compound 72A], the IC50 at ATR kinase (read-out: ATR kinase IC50) is 100 to 1000 nM; in the assay on LoVo cells (setting [2]), more than 1000 nM.
With `CC(C)C1(O)CCn2nc(-c3cc[nH]n3)c3nc(N4CCOC[C@H]4C)cc1c32` (single isomer, unassigned) [Compound 72B], the IC50 on ATR kinase (read-out: ATR kinase IC50) and in the assay with LoVo cells (setting [2]) was 100 to 1000 nM in each case.
For `C[C@@H]1COCCN1c1cc2c3c(nn(-c4cc[nH]n4)c3n1)CCN(S(C)(=O)=O)C2C1CC1` (single isomer, unassigned) [Compound 138A], the results for the IC50 on ATR kinase (read-out: ATR kinase IC50) and with LoVo cells (setting [1]) were less than 10 nM and 100 to 1000 nM, respectively.
On to `C[C@@H]1COCCN1c1cc2c3c(nn(-c4cc[nH]n4)c3n1)CCN(S(C)(=O)=O)C2C1CC1` (single isomer, unassigned) [Compound 138B], for which the half-maximal inhibitory concentration (IC50) at ATR kinase (read-out: ATR kinase IC50) was less than 10 nM; in the assay on LoVo cells (setting [2]), less than 100 nM.
`CC(C)C1c2cc(N3CCOC[C@H]3C)nc3c2c(nn3-c2cc[nH]n2)CCN1C` (single isomer, unassigned) [Compound 141A]: the 50% inhibitory concentration (IC50) at ATR kinase (read-out: ATR kinase IC50) is less than 10 nM; in the assay on LoVo cells (setting [1]), less than 100 nM.
With `CC(C)C1c2cc(N3CCOC[C@H]3C)nc3c2c(nn3-c2cc[nH]n2)CCN1C` (single isomer, unassigned) [Compound 141B], the IC50 is less than 10 nM at ATR kinase (read-out: ATR kinase IC50) and less than 100 nM in the assay on LoVo cells (setting [2]).
For the compound `C[C@@H]1COCCN1c1cc2c3c(nn(-c4cc[nH]n4)c3n1)CCN(C)C2C1CC1` (single isomer, unassigned) [Compound 142A], the IC50 at ATR kinase (read-out: ATR kinase IC50) was less than 10 nM; with LoVo cells (setting [1]) it was less than 100 nM.
With `C[C@@H]1COCCN1c1cc2c3c(nn(-c4cc[nH]n4)c3n1)CCN(C)C2C1CC1` (single isomer, unassigned) [Compound 142B], the results for the concentration for half-maximal inhibition (IC50) on ATR kinase (read-out: ATR kinase IC50) and in the assay on LoVo cells (setting [2]) were less than 10 nM and less than 100 nM, respectively.
On to `CCC1c2cc(N3CCOC[C@H]3C)nc3c2c(nn3-c2cc[nH]n2)CCN1S(C)(=O)=O` (single isomer, unassigned) [Compound 144A], for which the IC50 at ATR kinase (read-out: ATR kinase IC50) was less than 10 nM; in the assay on LoVo cells (setting [1]), 100 to 1000 nM.
With `CCC1c2cc(N3CCOC[C@H]3C)nc3c2c(nn3-c2cc[nH]n2)CCN1S(C)(=O)=O` (single isomer, unassigned) [Compound 144B], the IC50 is less than 10 nM on ATR kinase (read-out: ATR kinase IC50) and less than 100 nM in the assay on LoVo cells (setting [2]).
Turning to `CCC1c2cc(N3CCOC[C@H]3C)nc3c2c(nn3-c2cc[nH]n2)CCN1S(=O)(=O)C1CC1` (single isomer, unassigned) [Compound 145A], the IC50 on ATR kinase (read-out: ATR kinase IC50) fell in the range of 10 to 100 nM; in the assay with LoVo cells (setting [1]) it was 100 to 1000 nM.
On to `CCC1c2cc(N3CCOC[C@H]3C)nc3c2c(nn3-c2cc[nH]n2)CCN1S(=O)(=O)C1CC1` (single isomer, unassigned) [Compound 145B], for which the half-inhibitory concentration (IC50) on ATR kinase (read-out: ATR kinase IC50) is less than 10 nM; with LoVo cells (setting [2]), 100 to 1000 nM.
For the compound `CC1c2cc(N3CCOC[C@H]3C)nc3c2c(nn3-c2cc[nH]n2)CCN1S(=O)(=O)C1CC1F` (single isomer, unassigned) [Compound 151A], the concentration for half-maximal inhibition (IC50) at ATR kinase (read-out: ATR kinase IC50) is less than 10 nM; in the assay with LoVo cells (setting [1]), less than 100 nM.
For the compound `CC1c2cc(N3CCOC[C@H]3C)nc3c2c(nn3-c2cc[nH]n2)CCN1S(=O)(=O)C1CC1F` (single isomer, unassigned) [Compound 151B], the half-inhibitory concentration (IC50) was less than 10 nM on ATR kinase (read-out: ATR kinase IC50) and less than 100 nM in the assay with LoVo cells (setting [2]).
`CC1c2cc(N3CCOC[C@H]3C)nc3c2c(nn3-c2cc[nH]n2)CCN1S(=O)(=O)C1CC1F` (single isomer, unassigned) [Compound 151C]: the results for the half-maximal inhibitory concentration (IC50) on ATR kinase (read-out: ATR kinase IC50) and with LoVo cells (setting [2]) were 10 to 100 nM and 100 to 1000 nM, respectively.
In the case of `CC1c2cc(N3CCOC[C@H]3C)nc3c2c(nn3-c2cc[nH]n2)CCN1S(=O)(=O)C1CC1F` (single isomer, unassigned) [Compound 151D], the 50% inhibitory concentration (IC50) on ATR kinase (read-out: ATR kinase IC50) and in the assay with LoVo cells (setting [2]) was 100 to 1000 nM in each case.
Turning to `CN=S(C)(=O)N1CCc2nn(-c3cc[nH]n3)c3nc(N4CCOC[C@H]4C)cc(c23)C1C` (single isomer, unassigned) [Compound 152A], the concentration for half-maximal inhibition (IC50) on ATR kinase (read-out: ATR kinase IC50) was less than 10 nM; in the assay with LoVo cells (setting [1]), less than 100 nM.
With `CN=S(C)(=O)N1CCc2nn(-c3cc[nH]n3)c3nc(N4CCOC[C@H]4C)cc(c23)C1C` (single isomer, unassigned) [Compound 152B], the IC50 at ATR kinase (read-out: ATR kinase IC50) lay within 10 to 100 nM; with LoVo cells (setting [2]) it was 100 to 1000 nM.
Consider `C[C@@H]1COCCN1c1cc2c3c(nn(-c4cc[nH]n4)c3n1)CCNC2` [Compound 1, (R)-4-(2-(1H-pyrazol-3-yl)-6,7,8,9-tetrahydro-2H-1,2,3,7-tetraazabenzo[cd]azulen-4-yl)-3-methylmorpholine], for which the IC50 on ATR kinase (ATR kinase IC50 (nM)) fell in the range of 100 to 1000 nM; in the assay on LoVo cells (Homo sapiens, LoVo, 120 h, read-out: LoVo IC50 (nM), LoVo cells, 2,000 cells per well, 5 days incubation, CellTiter-Glo), 100 to 1000 nM.
`CC(C)N1CCc2nn(-c3cc[nH]n3)c3nc(N4CCOC[C@H]4C)cc(c23)C1` [Compound 2]: the IC50 on ATR kinase (read-out: ATR kinase IC50) was in the range of 10 to 100 nM; in the assay on LoVo cells (setting [1]), 100 to 1000 nM.
Take `C[C@@H]1COCCN1c1cc2c3c(nn(-c4cc[nH]n4)c3n1)CCN(C1CCOCC1)C2` [Compound 3, (R)-4-(2-(1H-pyrazol-3-yl)-7-(tetrahydro-2H-pyran-4-yl)-6,7,8,9-tetrahydro-2H-1,2,3,7-tetraazabenzo[cd]azulen-4-yl)-3-methylmorpholine]: the half-maximal inhibitory concentration (IC50) fell in the range of 10 to 100 nM on ATR kinase (read-out: ATR kinase IC50) and 100 to 1000 nM in the assay on LoVo cells (setting [1]).
With `C[C@@H]1COCCN1c1cc2c3c(nn(-c4cc[nH]n4)c3n1)CCN(C1CCOC1)C2` (stereo partly drawn) [Compound 4, (3R)-4-(2-(1H-pyrazol-3-yl)-7-(tetrahydrofuran-3-yl)-6,7,8,9-tetrahydro-2H-1,2,3,7-tetraazabenzo[cd]azulen-4-yl)-3-methylmorpholine], the IC50 on ATR kinase (read-out: ATR kinase IC50) lay in the range of 10 to 100 nM; with LoVo cells (setting [1]), 100 to 1000 nM.
For `CC(=O)N1CCc2nn(-c3cc[nH]n3)c3nc(N4CCOC[C@H]4C)cc(c23)C1` [Compound 5], in that order: 10 to 100 nM and 100 to 1000 nM.
On to `C[C@@H]1COCCN1c1cc2c3c(nn(-c4cc[nH]n4)c3n1)CCN(C1CC3CCC(C1)O3)C2` (stereo partly drawn) [Compound 6, (3R)-4-(7-(8-oxabicyclo[3.2.1]octan-3-yl)-2-(1H-pyrazol-3-yl)-6,7,8,9-tetrahydro-2H-1,2,3,7-tetraazabenzo[cd]azulen-4-yl)-3-methylmorpholine], for which the IC50 on ATR kinase (read-out: ATR kinase IC50) and with LoVo cells (setting [1]) was 100 to 1000 nM in each case.
For `C[C@@H]1COCCN1c1cc2c3c(nn(-c4cc[nH]n4)c3n1)CCN(C1CC(F)(F)C1)C2` [Compound 7, (R)-4-(7-(3,3-difluorocyclobutyl)-2-(1H-pyrazol-3-yl)-6,7,8,9-tetrahydro-2H-1,2,3,7-tetraazabenzo[cd]azulen-4-yl)-3-methylmorpholine], the 50% inhibitory concentration (IC50) on ATR kinase (read-out: ATR kinase IC50) fell in the range of 10 to 100 nM; in the assay on LoVo cells (setting [1]) it was 100 to 1000 nM.
As to `C[C@@H]1COCCN1c1cc2c3c(nn(-c4cc[nH]n4)c3n1)CCN(C1COC1)C2` [Compound 8, (R)-3-Methyl-4-(7-(oxetan-3-yl)-2-(1H-pyrazol-3-yl)-6,7,8,9-tetrahydro-2H-1,2,3,7-tetraazabenzo[cd]azulen-4-yl)morpholine], the IC50 on ATR kinase (read-out: ATR kinase IC50) lay within 10 to 100 nM; in the assay on LoVo cells (setting [1]), 100 to 1000 nM.
